Test results as given in patent US20240336654A1, “ANTIMICROBIAL PEPTIDOMIMETICS” (SPEXIS AG, priority 2021, published 2024).
Where a SMILES comes first, the peptide text is derived from it. Bridges are numbered along the chain shown (N, C = ends). [ ]: non-standard residue; d: D form. dDab(iPr) = CC(C)NCC[C@@H](N)C(=O)O; Hyp = O=C(O)[C@@H]1C[C@@H](O)CN1; dCit = NC(=O)NCCC[C@@H](N)C(=O)O; Cit = NC(=O)NCCC[C@H](N)C(=O)O; Pen = CC(C)(S)[C@H](N)C(=O)O; dDab = NCC[C@@H](N)C(=O)O; Dab = NCC[C@H](N)C(=O)O

Legend:
Type in all cases: cell-based
[1] = system: Escherichia coli ATCC 25922; details: ATCC 25922
Summary of the method: (§1)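 CLSI broth microdilution, slightly modified: cation-adjusted Mueller-Hinton II broth with about 5×10^5 CFU/mL from a 0.5 McFarland suspension, and two-fold serial peptide dilutions with Polysorbate 80 at 0.002% final. MIC (μg/mL) was the lowest concentration with no visible growth after 18-20 hours at 35° C.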

[2] = system: Escherichia coli MCR-1 Af 45; details: MCR-1 Af 45
Summary of the method: as §1

[3] = system: Klebsiella pneumoniae SSI3010; details: SSI3010
Summary of the method: as §1

[4] = system: human red blood cells (hRBC); details: red cells of human, 1 h, 200 μg/mL
Summary of the method: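 Peptides at 200 μg/mL incubated 1 h at 37 °C with 20% (v/v) washed human RBC, shaking. Hemolysis from supernatant OD540, expressed as percent of 2.5% Triton X-100 lysis, with PBS as 0%.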

Row | Structure (SMILES) | Escherichia coli ATCC 25922 MIC [1] [µg/mL] | Escherichia coli MCR-1 Af45 MIC [2] [µg/mL] | Klebsiella pneumoniae SSI3010 MIC [3] [µg/mL] | Hemolysis at 0.2 g/L [4] [%]
1 | CC[C@H](C)[C@H](NC(=O)[C@@H]1C[C@@H](O)CN1C(=O)[C@@H](N)C(C)C)C(=O)N[C@@H]1C(=O)N[C@@H](Cc2ccc(O)cc2)C(=O)N[C@@H](CO)C(=O)N[C@@H](CC(N)=O)C(=O)N[C@@H](CCCNC(=N)N)C(=O)N[C@@H](CCN)C(=O)N[C@@H]([C@@H](C)O)C(=O)N[C@H](CCCCN)C(=O)N[C@@H](CCCCN)C(=O)N[C@@H](CCN)C(=O)N[C@@H](CCN)C(=O)N[C@H](C(=O)N[C@@H](Cc2ccc(O)cc2)C(=O)O)CSSC1(C)C [Example 35, Val-Hyp-Ile-Pen-Tyr-Ser-Asn-Arg-Dab-Thr-^DLys-Lys-Dab-Dab-Cys-Tyr] (H-V[Hyp]I[Pen]YSNR[Dab]T[dK]K[Dab][Dab]CY-OH; disulfide 4-15) | 0.125 | 0.0625 | 0.25 | <1
2 | CC[C@H](C)[C@H](NC(=O)[C@@H]1C[C@@H](O)CN1C(=O)[C@@H](N)C(C)C)C(=O)N[C@@H]1C(=O)N[C@@H](Cc2ccc(O)cc2)C(=O)N[C@@H](CO)C(=O)N[C@@H](CC(N)=O)C(=O)N[C@@H](CCCNC(=N)N)C(=O)N[C@@H](CCN)C(=O)N[C@@H]([C@@H](C)O)C(=O)N[C@H](CCCNC(=N)N)C(=O)N[C@@H](CCCCN)C(=O)N[C@@H](CCN)C(=O)N[C@@H](CCN)C(=O)N[C@H](C(=O)N[C@@H](Cc2ccc(O)cc2)C(=O)O)CSSC1(C)C [Example 36, Val-Hyp-Ile-Pen-Tyr-Ser-Asn-Arg-Dab-Thr-^DArg-Lys-Dab-Dab-Cys-Tyr] (H-V[Hyp]I[Pen]YSNR[Dab]T[dR]K[Dab][Dab]CY-OH; disulfide 4-15) | 0.125 | 0.125 | 0.125 | <1
3 | CC[C@H](C)[C@H](NC(=O)[C@@H]1C[C@@H](O)CN1C(=O)[C@@H](N)C(C)C)C(=O)N[C@@H]1C(=O)N[C@@H](Cc2ccc(O)cc2)C(=O)N[C@@H](CO)C(=O)N[C@@H](CC(N)=O)C(=O)N[C@@H](CCCNC(=N)N)C(=O)N[C@@H](CCN)C(=O)N[C@@H]([C@@H](C)O)C(=O)N[C@H](CCCNC(N)=O)C(=O)N[C@@H](CCCCN)C(=O)N[C@@H](CCN)C(=O)N[C@@H](CCN)C(=O)N[C@H](C(=O)N[C@@H](Cc2ccc(O)cc2)C(=O)O)CSSC1(C)C [Example 37, Val-Hyp-Ile-Pen-Tyr-Ser-Asn-Arg-Dab-Thr-^DCit-Lys-Dab-Dab-Cys-Tyr] (H-V[Hyp]I[Pen]YSNR[Dab]T[dCit]K[Dab][Dab]CY-OH; disulfide 4-15) | 0.5 | 0.5 | 0.5 | <1
4 | CC[C@H](C)[C@H](NC(=O)[C@@H]1C[C@@H](O)CN1C(=O)[C@@H](N)C(C)C)C(=O)N[C@@H]1C(=O)N[C@@H](Cc2ccc(O)cc2)C(=O)N[C@@H](CO)C(=O)N[C@@H](CC(N)=O)C(=O)N[C@@H](CCCNC(=N)N)C(=O)N[C@@H](CCN)C(=O)N[C@@H]([C@@H](C)O)C(=O)N[C@H](CCNC(C)C)C(=O)N[C@@H](CCCCN)C(=O)N[C@@H](CCN)C(=O)N[C@@H](CCN)C(=O)N[C@H](C(=O)N[C@@H](Cc2ccc(O)cc2)C(=O)O)CSSC1(C)C [Example 38, Val-Hyp-Ile-Pen-Tyr-Ser-Asn-Arg-Dab-Thr-^DDab(iPr)-Lys-Dab-Dab-Cys-Tyr] (H-V[Hyp]I[Pen]YSNR[Dab]T[dDab(iPr)]K[Dab][Dab]CY-OH; disulfide 4-15) | 0.125 | 0.125 | 0.5 | <1
5 | CC[C@H](C)[C@H](NC(=O)[C@@H]1C[C@@H](O)CN1C(=O)[C@@H](N)C(C)C)C(=O)N[C@@H]1C(=O)N[C@@H](Cc2ccc(O)cc2)C(=O)N[C@@H](CO)C(=O)N[C@@H](CC(N)=O)C(=O)N[C@@H](CCCNC(=N)N)C(=O)N[C@@H](CCN)C(=O)N[C@@H]([C@@H](C)O)C(=O)N[C@H](CCN)C(=O)N[C@@H](C)C(=O)N[C@@H](CCN)C(=O)N[C@@H](CCN)C(=O)N[C@H](C(=O)N[C@@H](Cc2ccc(O)cc2)C(=O)O)CSSC1(C)C [Example 39, Val-Hyp-Ile-Pen-Tyr-Ser-Asn-Arg-Dab-Thr-^DDab-Ala-Dab-Dab-Cys-Tyr] (H-V[Hyp]I[Pen]YSNR[Dab]T[dDab]A[Dab][Dab]CY-OH; disulfide 4-15) | 0.25 | 0.25 | 0.5 | <1
6 | CC[C@H](C)[C@H](NC(=O)[C@@H]1C[C@@H](O)CN1C(=O)[C@@H](N)C(C)C)C(=O)N[C@@H]1C(=O)N[C@@H](Cc2ccc(O)cc2)C(=O)N[C@@H](CO)C(=O)N[C@@H](CC(N)=O)C(=O)N[C@@H](CCCNC(=N)N)C(=O)N[C@@H](CCN)C(=O)N[C@@H]([C@@H](C)O)C(=O)N[C@H](CCN)C(=O)N[C@@H](CCCNC(N)=O)C(=O)N[C@@H](CCN)C(=O)N[C@@H](CCN)C(=O)N[C@H](C(=O)N[C@@H](Cc2ccc(O)cc2)C(=O)O)CSSC1(C)C [Example 40, Val-Hyp-Ile-Pen-Tyr-Ser-Asn-Arg-Dab-Thr-^DDab-Cit-Dab-Dab-Cys-Tyr] (H-V[Hyp]I[Pen]YSNR[Dab]T[dDab][Cit][Dab][Dab]CY-OH; disulfide 4-15) | 0.25 | 0.125 | 0.5 | <1
7 | CC[C@H](C)[C@H](NC(=O)[C@@H]1C[C@@H](O)CN1C(=O)[C@@H](N)C(C)C)C(=O)N[C@@H]1C(=O)N[C@@H](Cc2ccc(O)cc2)C(=O)N[C@@H](CO)C(=O)N[C@@H](CC(N)=O)C(=O)N[C@@H](CCCNC(=N)N)C(=O)N[C@@H](CCN)C(=O)N[C@@H]([C@@H](C)O)C(=O)N[C@H](CCN)C(=O)N[C@@H](Cc2ccc(O)cc2)C(=O)N[C@@H](CCN)C(=O)N[C@@H](CCN)C(=O)N[C@H](C(=O)N[C@@H](Cc2ccc(O)cc2)C(=O)O)CSSC1(C)C [Example 41, Val-Hyp-Ile-Pen-Tyr-Ser-Asn-Arg-Dab-Thr-^DDab-Tyr-Dab-Dab-Cys-Tyr] (H-V[Hyp]I[Pen]YSNR[Dab]T[dDab]Y[Dab][Dab]CY-OH; disulfide 4-15) | 0.125 | 0.125 | 0.25 | <1
8 | CC[C@H](C)[C@@H]1NC(=O)[C@@H](CCN)NC(=O)[C@H]([C@@H](C)O)NC(=O)[C@H](CCN)NC(=O)[C@H](CCCNC(=N)N)NC(=O)[C@H](CC(N)=O)NC(=O)[C@H](CO)NC(=O)[C@H](Cc2ccc(O)cc2)NC(=O)[C@@H](NC(=O)[C@@H](NC(=O)[C@@H]2C[C@@H](O)CN2C(=O)[C@@H](N)C(C)C)[C@@H](C)CC)C(C)(C)SSC[C@@H](C(=O)N[C@@H](Cc2ccc(O)cc2)C(=O)O)NC(=O)[C@H](CCN)NC(=O)[C@H](CCN)NC1=O [Example 42, Val-Hyp-Ile-Pen-Tyr-Ser-Asn-Arg-Dab-Thr-^DDab-Ile-Dab-Dab-Cys-Tyr] (H-V[Hyp]I[Pen]YSNR[Dab]T[dDab]I[Dab][Dab]CY-OH; disulfide 4-15) | 0.125 | 0.125 | 0.25 | <1
9 | CC[C@H](C)[C@H](NC(=O)[C@@H]1C[C@@H](O)CN1C(=O)[C@@H](N)C(C)C)C(=O)N[C@@H]1C(=O)N[C@@H](Cc2ccc(O)cc2)C(=O)N[C@@H](CO)C(=O)N[C@@H](CC(N)=O)C(=O)N[C@@H](CCCNC(=N)N)C(=O)N[C@@H](CCN)C(=O)N[C@@H]([C@@H](C)O)C(=O)N[C@H](CCN)C(=O)N[C@@H](CC(N)=O)C(=O)N[C@@H](CCN)C(=O)N[C@@H](CCN)C(=O)N[C@H](C(=O)N[C@@H](Cc2ccc(O)cc2)C(=O)O)CSSC1(C)C [Example 43, Val-Hyp-Ile-Pen-Tyr-Ser-Asn-Arg-Dab-Thr-^DDab-Asn-Dab-Dab-Cys-Tyr] (H-V[Hyp]I[Pen]YSNR[Dab]T[dDab]N[Dab][Dab]CY-OH; disulfide 4-15) | 0.25 | 0.25 | 0.5 | <1
10 | CC[C@H](C)[C@H](NC(=O)[C@@H]1C[C@@H](O)CN1C(=O)[C@@H](N)C(C)C)C(=O)N[C@@H]1C(=O)N[C@@H](Cc2ccc(O)cc2)C(=O)N[C@@H](CO)C(=O)N[C@@H](CC(N)=O)C(=O)N[C@@H](CCCNC(=N)N)C(=O)N[C@@H](CCN)C(=O)N[C@@H]([C@@H](C)O)C(=O)N[C@H](CCN)C(=O)N[C@@H](CO)C(=O)N[C@@H](CCN)C(=O)N[C@@H](CCN)C(=O)N[C@H](C(=O)N[C@@H](Cc2ccc(O)cc2)C(=O)O)CSSC1(C)C [Example 44, Val-Hyp-Ile-Pen-Tyr-Ser-Asn-Arg-Dab-Thr-^DDab-Ser-Dab-Dab-Cys-Tyr] (H-V[Hyp]I[Pen]YSNR[Dab]T[dDab]S[Dab][Dab]CY-OH; disulfide 4-15) | 0.25 | 0.125 | 0.25 | <1
